Assay results: patent publication EP4810052A2, “HCRHR2 SELECTIVE POLYPEPTIDES” (Gubra A/S, priority 2023, dated 2026)
Starred links: 1 amine or outer side, 2 acyl side, 3 side chain; linkers in the order of their positions; H or OH if unused. Non-standard residues stand in square brackets, D forms with d. Residues, ends and D or L forms follow the SMILES beside them. Groups on a side chain read outwards from the residue. *: point of attachment. C20 diacid = O=C(O)CCCCCCCCCCCCCCCCCCC(=O)*; γGlu = O=C(O)[C@H](CCC(=O)[*:2])N[*:1]; NMeI = CC[C@H](C)[C@H](NC)C(=O)O; AEEA = NCCOCCOCC(=O)O

Target: T1, hCRHR2 (Homo sapiens, UniProt Q13324)
T1 sequence (Q13324 1-411): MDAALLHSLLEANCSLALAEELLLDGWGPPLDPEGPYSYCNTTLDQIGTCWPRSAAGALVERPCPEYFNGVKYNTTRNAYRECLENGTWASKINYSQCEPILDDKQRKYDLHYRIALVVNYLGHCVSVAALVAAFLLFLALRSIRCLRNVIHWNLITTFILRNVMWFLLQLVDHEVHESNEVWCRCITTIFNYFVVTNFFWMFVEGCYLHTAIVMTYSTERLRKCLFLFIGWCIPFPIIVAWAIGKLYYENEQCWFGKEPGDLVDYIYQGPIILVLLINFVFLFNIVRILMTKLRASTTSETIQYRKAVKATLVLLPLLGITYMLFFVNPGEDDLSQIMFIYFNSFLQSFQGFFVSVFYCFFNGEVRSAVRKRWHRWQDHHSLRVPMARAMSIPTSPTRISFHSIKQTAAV
Test: HTRF cAMP assay, determination of hCRHR2 potency (peptide libraries 5 conc., purified peptides 11 conc.)
Format: cell-based
Settings: for Selectivity ratio (hCRHR1/ hCRHR2): hCRHR1-EC50/hCRHR2-EC50; for EC50: purified peptides, CHO-K1 cells stably expressing hCRHR2, cAMP HTRF, read-out: hCRHR2 EC50
From the text: HTRF (CisBio) cAMP assay: The assay technology has thoroughly been described in the CisBio HTRF cAMP assay Kit manual (# 62AM4PEC). Briefly, time resolved fluorescence technic was applied to measure cAMP. This technic is based on a competitive immunoassay using cryptate-labelled anti-cAMP antibody and d2-labeled cAMP. In the absence of cellular cAMP, the anti-cAMP cryptate conjugate may get into proximity to cAMP-d2 conjugate and energy (FRET) can be transferred from cryptate to d2.
CHO-K1 cells stably expressing the human corticotropin-releasing hormone receptor 2 (Eurofins/DiscoverX, Cat #95-0048C2 hCRHR2 stable monoclonal cell lines) were used as cells in suspension, brought to life from frozen cell stocks immediately before assay performance.
Concentration-response evaluation of compounds was performed with 5 concentrations of agonist peptides and EC50 values were calculated by nonlinear regression using sigmoid concentration-response with variable slope.
Concentration-response evaluation of compounds was performed with 11 concentrations of agonist peptides and EC50 values were calculated by nonlinear regression using sigmoid concentration-response with variable slope.

SMILES: CC[C@H](C)[C@H](NC(=O)COCCOCCNC(=O)COCCOCCNC(=O)CC[C@H](NC(=O)CC[C@H](NC(=O)CCCCCCCCCCCCCCCCCCC(=O)O)C(=O)O)C(=O)O)C(=O)N[C@H](C(=O)N[C@@H](CC(C)C)C(=O)N[C@@H](CO)C(=O)N[C@@H](CC(C)C)C(=O)N[C@@H](CC(=O)O)C(=O)N[C@H](C(=O)N1CCC[C@H]1C(=O)N[C@H](C(=O)NCC(=O)N[C@@H](CC(C)C)C(=O)N[C@@H](CC(C)C)C(=O)N[C@@H](CCC(N)=O)C(=O)N[C@H](C(=O)N[C@@H](CC(C)C)C(=O)N[C@@H](CC(C)C)C(=O)N[C@@H](CCC(=O)O)C(=O)N[C@@H](CCC(N)=O)C(=O)N[C@@H](C)C(=O)N[C@@H](CCCNC(=N)N)C(=O)N[C@@H](C)C(=O)N[C@@H](CCCNC(=N)N)C(=O)N[C@@H](C)C(=O)N[C@@H](C)C(=O)N[C@@H](CCCNC(=N)N)C(=O)N[C@@H](CCC(=O)O)C(=O)N[C@@H](CCC(N)=O)C(=O)N[C@@H](C)C(=O)N[C@H](C(=O)N[C@H](C(=O)N[C@@H](CC(N)=O)C(=O)N[C@@H](C)C(=O)N[C@@H](CCC(=O)O)C(=O)N[C@H](C(=O)N[C@@H](CC(C)C)C(=O)N[C@@H](C)C(=O)N[C@@H](CCC(=O)O)C(=O)N[C@H](C(N)=O)C(C)C)[C@@H](C)CC)[C@@H](C)O)[C@@H](C)O)[C@@H](C)CC)[C@@H](C)CC)C(C)C)C(C)C [SEQ ID NO: 260] ({C20 diacid-γGlu-γGlu-AEEA-AEEA}-IVLSLDVPIGLLQILLEQARARAAREQATTNAEILAEV-NH2)
- Selectivity ratio (hCRHR1/ hCRHR2): 79
- EC50: 1.4 nM

SMILES: CC[C@H](C)[C@H](NC)C(=O)N[C@H](C(=O)N[C@@H](CC(C)C)C(=O)N[C@@H](CO)C(=O)N[C@@H](CC(C)C)C(=O)N[C@@H](CC(=O)O)C(=O)N[C@H](C(=O)N1CCC[C@H]1C(=O)N[C@H](C(=O)NCC(=O)N[C@@H](CC(C)C)C(=O)N[C@@H](CC(C)C)C(=O)N[C@@H](CCC(N)=O)C(=O)N[C@H](C(=O)N[C@@H](CC(C)C)C(=O)N[C@@H](CC(C)C)C(=O)N[C@@H](CCC(=O)O)C(=O)N[C@@H](CCC(N)=O)C(=O)N[C@@H](CCC(=O)O)C(=O)N[C@@H](CCCCN)C(=O)N[C@@H](CCC(N)=O)C(=O)N[C@@H](CCC(=O)O)C(=O)N[C@@H](CCCCN)C(=O)N[C@@H](CCC(=O)O)C(=O)N[C@@H](CCCCN)C(=O)N[C@@H](CCC(N)=O)C(=O)N[C@@H](CCC(N)=O)C(=O)N[C@@H](C)C(=O)N[C@@H](CCCCNC(=O)COCCOCCNC(=O)COCCOCCNC(=O)CC[C@H](NC(=O)CC[C@H](NC(=O)CCCCCCCCCCCCCCCCCCC(=O)O)C(=O)O)C(=O)O)C(=O)N[C@H](C(=O)N[C@@H](CC(N)=O)C(=O)N[C@@H](C)C(=O)N[C@@H](CCC(N)=O)C(=O)N[C@H](C(=O)N[C@@H](CC(C)C)C(=O)N[C@@H](C)C(=O)N[C@@H](CCC(N)=O)C(=O)N[C@H](C(N)=O)C(C)C)[C@@H](C)CC)[C@@H](C)O)[C@@H](C)CC)[C@@H](C)CC)C(C)C)C(C)C [SEQ ID NO: 9, reference compound] (H-[NMeI]VLSLDVPIGLLQILLEQEKQEKEKQQAK([AEEA-AEEA-γGlu-γGlu-C20 diacid])TNAQILAQV-NH2)
- Selectivity ratio (hCRHR1/ hCRHR2): 392
- EC50: 1.3 nM

SMILES: CC[C@H](C)[C@H](NC)C(=O)N[C@H](C(=O)N[C@H](C(=O)N[C@@H](CO)C(=O)N[C@@H](CC(C)C)C(=O)N[C@@H](CC(=O)O)C(=O)N[C@H](C(=O)N1CCC[C@H]1C(=O)N[C@H](C(=O)NCC(=O)N[C@@H](CC(C)C)C(=O)N[C@@H](CC(C)C)C(=O)N[C@@H](CCC(N)=O)C(=O)N[C@H](C(=O)N[C@@H](CC(C)C)C(=O)N[C@@H](CC(C)C)C(=O)N[C@@H](CCC(=O)O)C(=O)N[C@@H](CCC(N)=O)C(=O)N[C@@H](CCC(=O)O)C(=O)N[C@@H](CCCCN)C(=O)N[C@@H](CCC(N)=O)C(=O)N[C@@H](CCC(=O)O)C(=O)N[C@@H](CCCCN)C(=O)N[C@@H](CCC(=O)O)C(=O)N[C@@H](CCCCN)C(=O)N[C@@H](CCC(N)=O)C(=O)N[C@@H](CCC(N)=O)C(=O)N[C@@H](C)C(=O)N[C@@H](CCCCNC(=O)COCCOCCNC(=O)COCCOCCNC(=O)CC[C@H](NC(=O)CC[C@H](NC(=O)CCCCCCCCCCCCCCCCCCC(=O)O)C(=O)O)C(=O)O)C(=O)N[C@H](C(=O)N[C@@H](CC(N)=O)C(=O)N[C@@H](C)C(=O)N[C@@H](CCC(=O)O)C(=O)N[C@H](C(=O)N[C@@H](CC(C)C)C(=O)N[C@@H](C)C(=O)N[C@@H](CCC(N)=O)C(=O)N[C@H](C(N)=O)C(C)C)[C@@H](C)CC)[C@@H](C)O)[C@@H](C)CC)[C@@H](C)CC)C(C)C)[C@@H](C)O)C(C)C [SEQ ID NO: 10, reference compound] (H-[NMeI]VTSLDVPIGLLQILLEQEKQEKEKQQAK([AEEA-AEEA-γGlu-γGlu-C20 diacid])TNAEILAQV-NH2)
- Selectivity ratio (hCRHR1/ hCRHR2): 139
- EC50: 0.49 nM

SMILES: CC[C@H](C)[C@H](NC(=O)[C@H](CCC(=O)O)NC(=O)[C@H](C)NC(=O)[C@H](CC(N)=O)NC(=O)[C@@H](NC(=O)[C@@H](NC(=O)[C@H](C)NC(=O)[C@H](CCC(N)=O)NC(=O)[C@H](CCC(=O)O)NC(=O)[C@H](CCCNC(=N)N)NC(=O)[C@H](C)NC(=O)[C@H](C)NC(=O)[C@H](CCCNC(=N)N)NC(=O)[C@H](C)NC(=O)[C@H](CCCNC(=N)N)NC(=O)[C@H](C)NC(=O)[C@H](CCC(N)=O)NC(=O)[C@H](CCC(=O)O)NC(=O)[C@H](CC(C)C)NC(=O)[C@H](CC(C)C)NC(=O)[C@@H](NC(=O)[C@H](CCC(N)=O)NC(=O)[C@H](CC(C)C)NC(=O)[C@H](CC(C)C)NC(=O)CNC(=O)[C@@H](NC(=O)[C@@H]1CCCN1C(=O)[C@@H](NC(=O)[C@H](CC(=O)O)NC(=O)[C@H](CC(C)C)NC(=O)[C@H](CO)NC(=O)[C@H](CC(C)C)NC(=O)[C@@H](NC(=O)[C@@H](NC(=O)[C@@H](N)CCCCNC(=O)COCCOCCNC(=O)COCCOCCNC(=O)CC[C@H](NC(=O)CC[C@H](NC(=O)CC[C@H](NC(=O)CCCCCCCCCCCCCCCCCCC(=O)O)C(=O)O)C(=O)O)C(=O)O)[C@@H](C)CC)C(C)C)C(C)C)[C@@H](C)CC)[C@@H](C)CC)[C@@H](C)O)[C@@H](C)O)C(=O)N[C@@H](CC(C)C)C(=O)N[C@@H](C)C(=O)N[C@@H](CCC(=O)O)C(=O)N[C@H](C(N)=O)C(C)C [SEQ ID NO: 11, reference compound] (H-K([AEEA-AEEA-γGlu-γGlu-γGlu-C20 diacid])IVLSLDVPIGLLQILLEQARARAAREQATTNAEILAEV-NH2)
- Selectivity ratio (hCRHR1/ hCRHR2): 419
- EC50: 1.6 nM

SMILES: CC[C@H](C)[C@H](NC(C)=O)C(=O)N[C@H](C(=O)N[C@@H](CC(C)C)C(=O)N[C@@H](CO)C(=O)N[C@@H](CC(C)C)C(=O)N[C@@H](CC(=O)O)C(=O)N[C@H](C(=O)N1CCC[C@H]1C(=O)N[C@H](C(=O)NCC(=O)N[C@@H](CC(C)C)C(=O)N[C@@H](CC(C)C)C(=O)N[C@@H](CCC(N)=O)C(=O)N[C@H](C(=O)N[C@@H](CC(C)C)C(=O)N[C@@H](CC(C)C)C(=O)N[C@@H](CCC(=O)O)C(=O)N[C@@H](CCC(N)=O)C(=O)N[C@@H](C)C(=O)N[C@@H](CCCNC(=N)N)C(=O)N[C@@H](C)C(=O)N[C@@H](CCCNC(=N)N)C(=O)N[C@@H](C)C(=O)N[C@@H](C)C(=O)N[C@@H](CCCNC(=N)N)C(=O)N[C@@H](CCC(=O)O)C(=O)N[C@@H](CCC(N)=O)C(=O)N[C@@H](C)C(=O)N[C@@H](CCCCNC(=O)COCCOCCNC(=O)COCCOCCNC(=O)CC[C@H](NC(=O)CC[C@H](NC(=O)CCCCCCCCCCCCCCCCCCC(=O)O)C(=O)O)C(=O)O)C(=O)N[C@H](C(=O)N[C@@H](CC(N)=O)C(=O)N[C@@H](C)C(=O)N[C@@H](CCC(=O)O)C(=O)N[C@H](C(=O)N[C@@H](CC(C)C)C(=O)N[C@@H](C)C(=O)N[C@@H](CCC(=O)O)C(=O)N[C@H](C(N)=O)C(C)C)[C@@H](C)CC)[C@@H](C)O)[C@@H](C)CC)[C@@H](C)CC)C(C)C)C(C)C [SEQ ID NO: 8] (Ac-IVLSLDVPIGLLQILLEQARARAAREQAK([AEEA-AEEA-γGlu-γGlu-C20 diacid])TNAEILAEV-NH2)
- Selectivity ratio (hCRHR1/ hCRHR2): 400
- EC50: 1.4 nM
